# ChEMBL document CHEMBL4393714, “Multi-targeting protein-protein interaction inhibitors: Evolution of macrocyclic ligands with embedded carbohydrates (MECs) to improve selectivity” (Eur J Med Chem, 2019)
# Columns and labels:
# [1] = target: Sodium-dependent dopamine transporter (Homo sapiens) (UniProt Q01959); assay: Displacement of [3H] BTCP from human recombinant dopamine […] at 10 uM measured after 120 mins by scintillation counter method relative to control
# [2] = target: Sodium-dependent noradrenaline transporter (Homo sapiens) (UniProt P23975); assay: Displacement of [3H] nisoxetine from human recombinant norepinephrine transporter at 10 uM measured after 120 mins by scintillation counter method relative to control
# [3] = target: T1, Sodium-dependent serotonin transporter (Homo sapiens, UniProt P31645); assay: Displacement of [3H] imipramine from human recombinant 5-HT transporter at 10 uM measured after 60 mins by scintillation counter method relative to control
# Rattus norvegicus [4] = species on record: Rattus norvegicus; assay: Displacement of [125I]alpha dendrotoxin from rat potassium channel at 10 uM measured after 60 mins by scintillation counter method relative to control
# [5] = target: Cav1.2 (L-type calcium channel subunit alpha-1C) (Rattus norvegicus, UniProt P22002); assay: Displacement of [3H] D888 from rat Cav1.2 (L-type) at 10 uM measured after 120 mins by scintillation counter method relative to control; settings: probe [3H] D888
# [6] = target: Somatostatin receptor type 1 (Homo sapiens) (UniProt P30872); assay: Displacement of [125I] tyr11-somatostatin-14 from human recombinant somatostatin receptor type1 at 10 uM measured after 180 mins by scintillation counter method relative to control
# [7] = target: 5-hydroxytryptamine receptor 6 (Homo sapiens) (UniProt P50406); assay: Displacement of [3H]LSD from human recombinant 5-HT6 receptor at 10 uM measured after 120 mins by scintillation counter method relative to control
# [8] = target: 5-hydroxytryptamine receptor 5A (Homo sapiens) (UniProt P47898); assay: Displacement of [3H]LSD from human recombinant 5-HT5A receptor at 10 uM measured after 120 mins by scintillation counter method relative to control
# [9] = target: Prostaglandin E2 receptor EP4 subtype (Homo sapiens) (UniProt P35408); assay: Displacement of [3H]PGE2 from human recombinant EP4 receptor at 10 uM measured after 120 mins by scintillation counter method relative to control
# [10] = target: Nociceptin receptor (Homo sapiens) (UniProt P41146); assay: Displacement of [3H]nociceptin from human recombinant ORL1 at 10 uM measured after 60 mins by scintillation counter method relative to control
# [11] = target: Mu-type opioid receptor (Homo sapiens) (UniProt P35372); assay: Displacement of [3H] DAMGO from human recombinant mu opioid receptor at 10 uM measured after 120 mins by scintillation counter method relative to control
# [12] = target: Substance-K receptor (Homo sapiens) (UniProt P21452); assay: Displacement of [125I]NKA from human recombinant NK2 receptor at 10 uM measured after 60 mins by scintillation counter method relative to control
# [13] = target: Muscarinic acetylcholine receptor M3 (Homo sapiens) (UniProt P20309); assay: Displacement of [3H]4-DAMP from human recombinant muscarinic 3 receptor at 10 uM measured after 60 mins by scintillation counter method relative to control
# [14] = target: Muscarinic acetylcholine receptor M2 (Homo sapiens) (UniProt P08172); assay: Displacement of [3H]AF-DX 384 from human recombinant muscarinic 2 receptor at 10 uM measured after 60 mins by scintillation counter method relative to control
# [15] = target: Muscarinic acetylcholine receptor M1 (Homo sapiens) (UniProt P11229); assay: Displacement of [3H]pirenzepine from human recombinant muscarinic 1 receptor at 10 uM measured after 60 mins by scintillation counter method relative to control
# [16] = target: C-C chemokine receptor type 1 (Homo sapiens) (UniProt P32246); assay: Displacement of [125I]MIP1-alpha from human recombinant CCR1 receptor at 10 uM measured after 120 mins by scintillation counter method relative to control
# [17] = target: Galanin receptor type 2 (Homo sapiens) (UniProt O43603); assay: Displacement of [125I]galanin from human recombinant GAL2 receptor at 10 uM measured after 120 mins by scintillation counter method relative to control
# [18] = target: Endothelin-1 receptor (Homo sapiens) (UniProt P25101); assay: Displacement of [125I]endothelin-1 from human recombinant ETA receptor at 10 uM measured after 120 mins by scintillation counter method relative to control
# [19] = target: D(2) dopamine receptor (Homo sapiens) (UniProt P14416); assay: Displacement of [3H]methyl-spiperone from human recombinant D2S receptor at 10 uM measured after 60 mins by scintillation counter method relative to control
# [20] = target: D(1A) dopamine receptor (Homo sapiens) (UniProt P21728); assay: Displacement of [3H]SCH23390 from human recombinant D1 receptor at 10 uM measured after 60 mins by scintillation counter method relative to control
# [21] = target: Cannabinoid receptor 1 (Homo sapiens) (UniProt P21554); assay: Displacement of [3H]CP 55940 from human recombinant CB1 receptor at 10 uM measured after 120 mins by scintillation counter method relative to control
# [22] = target: Beta-1 adrenergic receptor (Homo sapiens) (UniProt P08588); assay: Displacement of [3H] (-)CGP 12177 from human recombinant beta1 adreno receptor at 10 uM measured after 60 mins by scintillation counter method relative to control
# [23] = target: Adrenergic receptor alpha-1 (Rattus norvegicus) (UniProt P15823+P23944+P43140); assay: Displacement of [3H] prazosin from rat alpha1 adreno receptor at 10 uM measured after 60 mins by scintillation counter method relative to control; assay type: protein assay
# Rattus norvegicus [24] = species on record: Rattus norvegicus; assay: Displacement of [3H]flunitrazepam from rat GABAA Central-type benzodiazepine receptor at 10 uM measured after 120 mins by scintillation counter method relative to control
# Substance-K receptor = target: T2, Substance-K receptor (Homo sapiens, UniProt P21452); assay: Displacement of [125I]NKA from human recombinant NK2 receptor measured after 60 mins by scintillation counter method
# T2 sequence (P21452 whole entry): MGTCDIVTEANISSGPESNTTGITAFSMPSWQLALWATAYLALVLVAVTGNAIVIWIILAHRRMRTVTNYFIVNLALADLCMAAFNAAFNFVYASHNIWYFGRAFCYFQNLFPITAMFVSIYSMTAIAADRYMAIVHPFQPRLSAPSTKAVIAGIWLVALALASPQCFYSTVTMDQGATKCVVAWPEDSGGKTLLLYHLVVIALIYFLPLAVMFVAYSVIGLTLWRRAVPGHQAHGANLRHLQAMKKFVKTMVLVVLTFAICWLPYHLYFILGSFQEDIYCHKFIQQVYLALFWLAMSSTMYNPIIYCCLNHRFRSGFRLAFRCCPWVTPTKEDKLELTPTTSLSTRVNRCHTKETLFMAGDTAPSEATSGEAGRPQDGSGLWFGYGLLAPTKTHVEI
# [25] = Displacement of [3H] batrachotoxinin from rat sodium channel site 2 measured after 60 mins by scintillation counter method
# [26] = target: T1, Sodium-dependent serotonin transporter; assay: Displacement of [3H] imipramine from human recombinant 5-HT transporter measured after 60 mins by scintillation counter method
# Target sequence in this assay (P31645 whole entry): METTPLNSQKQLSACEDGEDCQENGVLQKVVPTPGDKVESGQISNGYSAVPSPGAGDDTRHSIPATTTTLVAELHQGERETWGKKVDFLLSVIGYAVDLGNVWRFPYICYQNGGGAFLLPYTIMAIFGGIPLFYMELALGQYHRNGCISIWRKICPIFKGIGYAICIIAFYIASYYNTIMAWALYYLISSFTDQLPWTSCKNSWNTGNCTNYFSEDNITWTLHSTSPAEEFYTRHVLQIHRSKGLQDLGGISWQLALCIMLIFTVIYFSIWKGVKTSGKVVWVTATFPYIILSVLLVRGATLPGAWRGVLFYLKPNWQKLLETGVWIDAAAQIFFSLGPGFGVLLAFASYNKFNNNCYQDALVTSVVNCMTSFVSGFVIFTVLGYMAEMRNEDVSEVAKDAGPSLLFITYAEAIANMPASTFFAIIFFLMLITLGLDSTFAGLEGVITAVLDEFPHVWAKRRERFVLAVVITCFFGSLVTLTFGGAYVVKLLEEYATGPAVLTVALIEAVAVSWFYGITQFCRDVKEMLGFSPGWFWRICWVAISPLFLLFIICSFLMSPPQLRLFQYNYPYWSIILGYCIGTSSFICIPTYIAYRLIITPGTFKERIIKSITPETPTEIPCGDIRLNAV
# Sequence of D(2) dopamine receptor (Homo sapiens) (P14416 whole entry): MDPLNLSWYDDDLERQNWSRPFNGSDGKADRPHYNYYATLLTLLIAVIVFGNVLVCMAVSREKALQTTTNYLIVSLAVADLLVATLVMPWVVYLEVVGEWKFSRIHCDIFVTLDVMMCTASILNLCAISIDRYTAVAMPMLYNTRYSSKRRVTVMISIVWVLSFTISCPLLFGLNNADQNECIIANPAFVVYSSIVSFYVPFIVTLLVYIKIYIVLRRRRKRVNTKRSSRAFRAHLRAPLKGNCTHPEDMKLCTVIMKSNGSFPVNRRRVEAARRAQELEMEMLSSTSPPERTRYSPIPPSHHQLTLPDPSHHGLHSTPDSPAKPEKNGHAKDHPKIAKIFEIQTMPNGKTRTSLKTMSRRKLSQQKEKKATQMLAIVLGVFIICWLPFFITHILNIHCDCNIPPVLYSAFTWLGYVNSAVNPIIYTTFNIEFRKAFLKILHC
# Sequence of Somatostatin receptor type 1 (Homo sapiens) (P30872 whole entry): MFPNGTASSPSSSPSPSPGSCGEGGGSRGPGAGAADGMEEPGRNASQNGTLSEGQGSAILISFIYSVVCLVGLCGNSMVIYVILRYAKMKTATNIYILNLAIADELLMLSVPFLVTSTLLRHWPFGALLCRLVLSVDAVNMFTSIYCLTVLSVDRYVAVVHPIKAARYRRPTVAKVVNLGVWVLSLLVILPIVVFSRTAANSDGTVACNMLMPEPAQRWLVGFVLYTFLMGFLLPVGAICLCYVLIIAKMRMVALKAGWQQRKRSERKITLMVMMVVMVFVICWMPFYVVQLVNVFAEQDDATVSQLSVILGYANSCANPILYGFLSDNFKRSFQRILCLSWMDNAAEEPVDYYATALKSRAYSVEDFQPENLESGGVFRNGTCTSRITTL
# Sequence of Cannabinoid receptor 1 (Homo sapiens) (P21554 whole entry): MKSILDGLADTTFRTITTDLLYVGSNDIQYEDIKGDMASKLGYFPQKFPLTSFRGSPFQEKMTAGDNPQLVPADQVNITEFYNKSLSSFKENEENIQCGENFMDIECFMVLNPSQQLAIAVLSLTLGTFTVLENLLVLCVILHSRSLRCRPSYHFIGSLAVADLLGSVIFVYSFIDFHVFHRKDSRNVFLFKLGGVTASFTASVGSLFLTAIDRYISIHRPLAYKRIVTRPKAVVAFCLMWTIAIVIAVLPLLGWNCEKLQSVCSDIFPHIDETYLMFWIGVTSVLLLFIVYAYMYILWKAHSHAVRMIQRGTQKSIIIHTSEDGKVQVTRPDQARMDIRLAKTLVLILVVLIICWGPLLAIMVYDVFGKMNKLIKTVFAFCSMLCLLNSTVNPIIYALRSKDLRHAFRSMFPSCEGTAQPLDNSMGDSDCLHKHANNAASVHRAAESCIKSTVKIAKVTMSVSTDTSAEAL
# Sequence of 5-hydroxytryptamine receptor 5A (Homo sapiens) (P47898 whole entry): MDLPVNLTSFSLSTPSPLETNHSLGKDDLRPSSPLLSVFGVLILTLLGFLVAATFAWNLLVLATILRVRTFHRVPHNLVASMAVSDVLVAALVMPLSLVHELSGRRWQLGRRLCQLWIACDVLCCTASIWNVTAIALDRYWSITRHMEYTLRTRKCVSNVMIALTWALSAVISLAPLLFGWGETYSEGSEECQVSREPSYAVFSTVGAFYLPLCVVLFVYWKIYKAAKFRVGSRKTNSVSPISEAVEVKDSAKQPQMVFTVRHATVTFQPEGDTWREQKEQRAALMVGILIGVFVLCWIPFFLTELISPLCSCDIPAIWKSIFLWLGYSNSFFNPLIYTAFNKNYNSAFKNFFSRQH
# Sequence of Beta-1 adrenergic receptor (Homo sapiens) (P08588 whole entry, looked up): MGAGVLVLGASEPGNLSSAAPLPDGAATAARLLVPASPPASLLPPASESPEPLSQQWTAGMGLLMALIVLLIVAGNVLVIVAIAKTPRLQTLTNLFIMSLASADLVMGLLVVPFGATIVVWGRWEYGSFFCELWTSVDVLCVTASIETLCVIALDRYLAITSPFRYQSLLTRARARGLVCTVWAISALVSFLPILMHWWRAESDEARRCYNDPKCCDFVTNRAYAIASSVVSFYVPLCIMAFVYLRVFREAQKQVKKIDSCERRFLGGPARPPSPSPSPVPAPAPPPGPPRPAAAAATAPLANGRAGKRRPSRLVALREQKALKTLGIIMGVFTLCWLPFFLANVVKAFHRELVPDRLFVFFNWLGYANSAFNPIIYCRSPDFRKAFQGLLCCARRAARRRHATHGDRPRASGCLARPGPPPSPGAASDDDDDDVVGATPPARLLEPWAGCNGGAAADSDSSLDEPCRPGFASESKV
# Sequence of Galanin receptor type 2 (Homo sapiens) (O43603 whole entry): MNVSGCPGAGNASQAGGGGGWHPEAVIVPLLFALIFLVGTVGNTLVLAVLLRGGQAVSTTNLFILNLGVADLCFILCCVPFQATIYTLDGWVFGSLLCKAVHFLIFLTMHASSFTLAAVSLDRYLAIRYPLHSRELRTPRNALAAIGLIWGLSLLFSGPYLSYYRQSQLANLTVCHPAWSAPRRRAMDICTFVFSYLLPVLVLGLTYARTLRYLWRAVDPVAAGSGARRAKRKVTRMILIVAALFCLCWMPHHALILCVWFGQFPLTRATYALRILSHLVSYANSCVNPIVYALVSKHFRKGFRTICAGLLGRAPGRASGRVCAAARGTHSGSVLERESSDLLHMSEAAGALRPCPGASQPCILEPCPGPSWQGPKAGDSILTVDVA
# Sequence of Sodium-dependent noradrenaline transporter (Homo sapiens) (P23975 whole entry): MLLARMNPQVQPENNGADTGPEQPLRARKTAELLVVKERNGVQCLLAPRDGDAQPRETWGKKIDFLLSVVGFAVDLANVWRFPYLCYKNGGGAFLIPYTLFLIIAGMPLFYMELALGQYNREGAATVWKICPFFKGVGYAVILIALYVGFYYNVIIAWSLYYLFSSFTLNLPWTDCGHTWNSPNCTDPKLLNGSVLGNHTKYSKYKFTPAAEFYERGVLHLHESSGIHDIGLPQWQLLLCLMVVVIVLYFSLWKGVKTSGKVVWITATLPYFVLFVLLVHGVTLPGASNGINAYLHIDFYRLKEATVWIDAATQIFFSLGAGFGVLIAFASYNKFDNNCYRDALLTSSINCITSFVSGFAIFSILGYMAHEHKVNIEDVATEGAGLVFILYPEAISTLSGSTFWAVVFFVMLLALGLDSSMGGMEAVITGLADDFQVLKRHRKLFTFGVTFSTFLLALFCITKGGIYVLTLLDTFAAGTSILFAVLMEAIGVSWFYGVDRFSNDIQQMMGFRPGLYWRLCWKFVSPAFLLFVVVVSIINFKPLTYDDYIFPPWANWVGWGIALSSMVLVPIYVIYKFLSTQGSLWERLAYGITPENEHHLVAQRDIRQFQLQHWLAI
# Sequence of 5-hydroxytryptamine receptor 6 (Homo sapiens) (P50406 whole entry): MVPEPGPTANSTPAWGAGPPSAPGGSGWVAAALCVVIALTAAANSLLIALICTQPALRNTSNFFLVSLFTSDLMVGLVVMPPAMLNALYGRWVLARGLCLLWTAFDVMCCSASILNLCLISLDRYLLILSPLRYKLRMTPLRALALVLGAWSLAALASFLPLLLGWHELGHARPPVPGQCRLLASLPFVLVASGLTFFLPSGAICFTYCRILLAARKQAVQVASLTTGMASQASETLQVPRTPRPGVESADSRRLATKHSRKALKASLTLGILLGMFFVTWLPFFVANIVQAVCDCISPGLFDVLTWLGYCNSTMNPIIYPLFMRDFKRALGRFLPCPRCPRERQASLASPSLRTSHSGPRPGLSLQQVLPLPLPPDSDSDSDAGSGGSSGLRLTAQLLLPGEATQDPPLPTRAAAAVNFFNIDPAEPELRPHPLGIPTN
# Sequence of C-C chemokine receptor type 1 (Homo sapiens) (P32246 whole entry): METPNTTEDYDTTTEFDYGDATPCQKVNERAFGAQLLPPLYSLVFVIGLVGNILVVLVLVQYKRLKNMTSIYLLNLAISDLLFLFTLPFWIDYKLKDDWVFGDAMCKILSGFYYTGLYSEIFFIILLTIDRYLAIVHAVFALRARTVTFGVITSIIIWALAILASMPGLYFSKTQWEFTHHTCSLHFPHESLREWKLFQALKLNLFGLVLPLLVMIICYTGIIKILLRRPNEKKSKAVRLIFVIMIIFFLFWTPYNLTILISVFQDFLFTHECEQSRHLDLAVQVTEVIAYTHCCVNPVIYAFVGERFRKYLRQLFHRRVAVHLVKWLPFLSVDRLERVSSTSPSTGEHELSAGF
# Sequence of Mu-type opioid receptor (Homo sapiens) (P35372 whole entry): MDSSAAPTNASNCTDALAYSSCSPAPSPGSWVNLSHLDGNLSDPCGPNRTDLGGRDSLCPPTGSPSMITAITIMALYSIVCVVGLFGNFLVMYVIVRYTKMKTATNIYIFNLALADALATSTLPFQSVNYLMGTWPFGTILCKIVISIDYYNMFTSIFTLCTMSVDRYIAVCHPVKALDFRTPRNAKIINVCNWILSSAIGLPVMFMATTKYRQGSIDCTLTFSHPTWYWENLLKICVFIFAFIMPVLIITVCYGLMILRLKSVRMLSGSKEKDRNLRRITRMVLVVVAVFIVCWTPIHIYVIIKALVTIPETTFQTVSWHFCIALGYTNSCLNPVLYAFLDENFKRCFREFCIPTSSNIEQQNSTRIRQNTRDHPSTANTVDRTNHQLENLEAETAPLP
structure (smiles),measurement,setting,value
CC(C)CCO[C@@H]1[C@H]2OC(C)(C)O[C@H]2[C@H]2Cn3cc(nn3)COCCCCCCN(CCc3ccc4ccccc4c3)CC[C@H]1O2,inhibition,[1],64.1%
same,inhibition,[2],55.7%
same,inhibition,[3],68.3%
same,inhibition,Rattus norvegicus [4],13.4%
same,"inhibition at 2 h, 10 µM",[5],90.5%
same,inhibition,[6],14%
same,inhibition,[7],16.1%
same,inhibition,[8],89%
same,inhibition,[9],29.9%
same,inhibition,[10],9.9%
same,inhibition,[11],96.5%
same,inhibition,[12],98.2%
same,inhibition,[13],41.2%
same,inhibition,[14],36.2%
same,inhibition,[15],31%
same,inhibition,[16],35.2%
same,Activity,[17],17.4%
same,Activity,[18],7.1%
same,inhibition,[19],59.6%
same,inhibition,[20],21.5%
same,inhibition,[21],33.8%
same,inhibition,[22],10.6%
same,inhibition,[23],57.7%
same,Activity,Rattus norvegicus [24],3.7%
same,IC50,Substance-K receptor,260 nM
same,Ki,Substance-K receptor,140 nM
same,IC50,[25],120 nM
same,Ki,[25],100 nM
same,IC50,[26],7.4 µM
same,Ki,[26],3.4 µM
